Values of other authors in US11478522B2, “Synergistic herbal compositions with prebiotic properties for treatment of acne” (KAMEDIS LTD., priority 2016, dated 2022).

Tests used:
[1] = molecular target: enzyme 11β-HSD1 (Homo sapiens, UniProt P28845)
[2] = molecular target: NLRP3 inflammasome (Homo sapiens, UniProt Q96P20)
Sequence of NLRP3 inflammasome (Q96P20 whole entry): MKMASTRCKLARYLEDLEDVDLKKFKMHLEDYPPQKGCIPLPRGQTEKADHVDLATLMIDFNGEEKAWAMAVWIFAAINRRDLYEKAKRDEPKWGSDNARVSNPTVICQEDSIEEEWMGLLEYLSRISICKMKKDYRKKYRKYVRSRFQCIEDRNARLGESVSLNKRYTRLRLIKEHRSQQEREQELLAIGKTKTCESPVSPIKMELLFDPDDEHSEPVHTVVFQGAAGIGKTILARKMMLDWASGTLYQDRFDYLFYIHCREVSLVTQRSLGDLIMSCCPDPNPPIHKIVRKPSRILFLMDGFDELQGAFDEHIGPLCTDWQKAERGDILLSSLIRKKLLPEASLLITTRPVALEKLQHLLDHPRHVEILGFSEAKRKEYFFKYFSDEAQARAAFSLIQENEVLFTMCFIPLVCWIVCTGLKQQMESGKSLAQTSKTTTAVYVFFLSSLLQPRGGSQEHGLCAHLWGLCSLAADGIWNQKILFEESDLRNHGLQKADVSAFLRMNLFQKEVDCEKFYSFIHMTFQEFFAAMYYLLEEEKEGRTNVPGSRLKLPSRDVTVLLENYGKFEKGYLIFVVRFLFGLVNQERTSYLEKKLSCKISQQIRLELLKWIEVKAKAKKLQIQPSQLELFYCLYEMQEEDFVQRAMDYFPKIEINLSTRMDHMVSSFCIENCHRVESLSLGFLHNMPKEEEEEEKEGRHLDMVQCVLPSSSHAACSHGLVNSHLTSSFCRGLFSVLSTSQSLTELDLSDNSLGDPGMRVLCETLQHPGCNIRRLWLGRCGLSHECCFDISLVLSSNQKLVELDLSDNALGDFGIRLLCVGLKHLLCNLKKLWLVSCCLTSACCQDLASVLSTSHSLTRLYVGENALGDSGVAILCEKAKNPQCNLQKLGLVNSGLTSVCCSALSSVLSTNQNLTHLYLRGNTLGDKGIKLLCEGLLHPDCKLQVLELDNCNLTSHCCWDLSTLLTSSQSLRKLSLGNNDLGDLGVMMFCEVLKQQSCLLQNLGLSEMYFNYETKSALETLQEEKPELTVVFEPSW

Sequence of enzyme 11β-HSD1 (P28845 whole entry, species assumed): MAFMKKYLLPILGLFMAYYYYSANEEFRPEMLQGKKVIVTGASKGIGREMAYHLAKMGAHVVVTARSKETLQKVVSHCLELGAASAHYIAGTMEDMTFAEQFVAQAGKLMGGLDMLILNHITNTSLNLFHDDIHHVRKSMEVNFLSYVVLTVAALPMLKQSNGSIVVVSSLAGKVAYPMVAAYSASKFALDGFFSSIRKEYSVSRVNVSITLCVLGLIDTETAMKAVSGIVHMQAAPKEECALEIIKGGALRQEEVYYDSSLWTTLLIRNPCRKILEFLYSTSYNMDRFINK

Structure (SMILES): Cc1cc(O)c2c(c1)C(=O)c1cc(O)cc(O)c1C2=O [emodin]
- inhibition of the enzyme 11β-HSD1 [1]: effective and selective as inhibitors
- NLRP3 inflammasome activation [2]: attenuate NLRP3 inflammasome activation
